Source: patent US9241998B2 (Board of Regents, The University of Texas System, priority 2007, dated 2016)
Peptide text beside a SMILES is read from it. * marks the point of attachment. Cbz = O=C(OCc1ccccc1)*; CH2F = FC*

Assays:
PC-3 cells = assay: Western blot of apoptosis proteins in RSV infected cells; type: cell-based, human
Description: Bcl-2, Bcl-xL, Bad, Bax antibodies were obtained from Cell Signaling, while caspase-3, PARP and GFP antibodies were from Santa Cruz. Heat shock protein-70 (Hsp70) (Santa Cruz) antibody was used as a loading control. Nuclear extracts prepared from infected cells were incubated with a ^32P-labeled NF-κB oligonucleotide probe and analyzed for EMSA as described previously.

RSV infected PC-3 cells = assay: RSV induced apoptosis (TUNEL) with caspase inhibitors or neutralizing antibodies; type: cell-based, human; settings: for decline in RSV induced apoptosis (TUNEL): PC-3 cells, 36 h post-infection, 15 μM optimal for caspase-3, -9, -8 inhibitors
Description: PC-3 cells were pre-treated with control inhibitor (Z-FA-FMK) or caspase-3 (Z-DQMD-FMK), -8 (Z-IETD-FMK), -9 (Z-LEHD-FMK), -3/7 (Z-DEVD-FMK) (Calbiochem) and -12 (Z-ATAD-FMK) (MBL) inhibitors for 1 h at 37° C. Caspase-3, -8, -9 and -3/7 inhibitors at 15 μM-60 μM were used, while the caspase-12 inhibitor was used at 50 μM-100 μM. […] The cells were then washed and the infection was continued for an additional 36 h in the presence of inhibitors, following which apoptosis analysis was performed by TUNEL assay. […] In some experiments, infection was performed in the presence of both neutralizing antibody and caspase-3 or -8 inhibitors. At 36 h post-infection, cells were assayed for apoptosis. PC-3 and RWPE cells were pre-treated with either SN50 peptide (30 μM) or control SN50M (50 μM) peptide (Calbiochem) for 2 h, followed by virus infection (in the presence of peptides) for 0 h-36 h, after which cells were analyzed for apoptosis.

[1] = system: human lung epithelial A549 cells; assay: RSV mediated apoptosis in A549 cells with caspase inhibitor; type: cell-based
Excerpt: (§1) The extrinsic pathway to apoptosis is induced following engagement of death receptors (e.g., TNF-receptor and Fas) with cognate ligands (TNF and FasL), leading to the activation of caspase-8. The ER-stress pathway (12) activation leads to activation of caspase-12. Activation of both caspase-8 and caspase-12 results in caspase-3 activation and apoptosis. […] Similarly, blocking caspase-9 activity also led to significant inhibition (by 75%) in apoptosis. […] It is important to note that the caspase-8 inhibitor is active, since it reduced interferon-γ+Fas antibody mediated apoptosis (14) in A549 cells by 60%.

A549 cells = assay: Interferon-γ+Fas antibody mediated apoptosis in A549 cells; type: cell-based, human
Excerpt: as §1

Compound: COC(=O)CC[C@H](NC(=O)[C@H](CC(=O)OC)NC(=O)OCc1ccccc1)C(=O)N[C@H](C(=O)N[C@@H](CC(=O)OC)C(=O)CF)C(C)C [Z-DEVD-FMK]
- PARP cleavage in RSV infected cells treated with inhibitor (PC-3 cells): prevented PARP cleavage

Compound: C[C@H](NC(=O)OCc1ccccc1)C(=O)N[C@H](C(=O)N[C@@H](C)C(=O)N[C@@H](CC(=O)O)C(=O)CF)[C@@H](C)O [caspase-12 inhibitor, Z-ATAD-FMK] (Cbz-ATAD-CH2F)
- decline in RSV induced apoptosis (TUNEL) (RSV infected PC-3 cells): did not alter apoptosis
- inhibition of apoptosis in infected PC-3 cells at high concentration (RSV infected PC-3 cells; up to 100 μM): failed to inhibit apoptosis
- inhibition of RSV mediated apoptosis [1]: 40%

Compound: CC[C@H](C)[C@H](NC(=O)OCc1ccccc1)C(=O)N[C@@H](CCC(=O)OC)C(=O)N[C@H](C(=O)N[C@@H](CC(=O)OC)C(=O)CF)[C@@H](C)O [caspase-8 inhibitor, Z-IETD-FMK] (Cbz-IE(OMe)TD(OMe)-CH2F)
- decline in RSV induced apoptosis (TUNEL) (RSV infected PC-3 cells): 15%
- reduction of interferon-γ+Fas antibody mediated apoptosis (A549 cells): 60%

Compound: COC(=O)CC[C@H](NC(=O)[C@H](CC(C)C)NC(=O)OCc1ccccc1)C(=O)N[C@@H](Cc1cnc[nH]1)C(=O)N[C@@H](CC(=O)OC)C(=O)CF [caspase-9 inhibitor, Z-LEHD-FMK] (Cbz-LE(OMe)HD(OMe)-CH2F)
- decline in RSV induced apoptosis (TUNEL) (RSV infected PC-3 cells): 75%

Compound: COC(=O)C[C@H](NC(=O)[C@H](CCSC)NC(=O)[C@H](CCC(N)=O)NC(=O)[C@H](CC(=O)OC)NC(=O)OCc1ccccc1)C(=O)CF [caspase-3 inhibitor, Z-DQMD-FMK] (Cbz-D(OMe)QMD(OMe)-CH2F)
- PARP cleavage in RSV infected cells treated with inhibitor (PC-3 cells): prevented PARP cleavage
- decline in RSV induced apoptosis (TUNEL) (RSV infected PC-3 cells): 85%
